Measurements as given in PubChem BioAssay (NCI).
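In this assay, cells in 96-well plates receive the compound at five concentrations for 48 hours. Endpoints are linearly interpolated between the surrounding concentrations. TGI: total growth inhibition.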

Experiments:
Experiment in all cases: NCI anticancer screen, dose series, 48 h
ACHN renal = test system: ACHN renal
CCRF-CEM leukemia = test system: CCRF-CEM leukemia
COLO 205 colon = test system: COLO 205 colon
HCT-116 colon = test system: HCT-116 colon
HS 578T breast = test system: HS 578T breast
HT29 colon = test system: HT29 colon
K-562 leukemia = test system: K-562 leukemia
M14 melanoma = test system: M14 melanoma
MDA-MB-231 breast = test system: MDA-MB-231 breast
MOLT-4 leukemia = test system: MOLT-4 leukemia
NCI-H522 lung = test system: NCI-H522 lung
OVCAR-4 ovarian = test system: OVCAR-4 ovarian
OVCAR-5 ovarian = test system: OVCAR-5 ovarian
RPMI-8226 leukemia = test system: RPMI-8226 leukemia
RXF 393 renal = test system: RXF 393 renal
SF-295 CNS = test system: SF-295 CNS
SK-MEL-5 melanoma = test system: SK-MEL-5 melanoma
SN12C renal = test system: SN12C renal
NCI-H460 lung = test system: NCI-H460 lung

| Compound | TGI (ACHN renal) | TGI (CCRF-CEM leukemia) | TGI (COLO 205 colon) | TGI (HCT-116 colon) | TGI (HS 578T breast) | TGI (HT29 colon) | TGI (K-562 leukemia) | TGI (M14 melanoma) | TGI (MDA-MB-231 breast) | TGI (MOLT-4 leukemia) | TGI (NCI-H522 lung) | TGI (OVCAR-4 ovarian) | TGI (OVCAR-5 ovarian) | TGI (RPMI-8226 leukemia) | TGI (RXF 393 renal) | TGI (SF-295 CNS) | TGI (SK-MEL-5 melanoma) | TGI (SN12C renal) | TGI (NCI-H460 lung) |
| --- | --- | --- | --- | --- | --- | --- | --- | --- | --- | --- | --- | --- | --- | --- | --- | --- | --- | --- | --- |
| OCc1c2c(cc3c1CC1(C3)Cc3cc4c(c(CO)c3C1)CCC4)CCC2 | 22.6 µM | 25.9 µM | 42.4 µM | 26.4 µM | 36.9 µM | 32.4 µM | 21.9 µM | 32.9 µM | 32.1 µM | 28.3 µM | 28.5 µM | 23.5 µM | 34.6 µM | 47.5 µM | 32.7 µM | 26.9 µM | 17.9 µM | 32.4 µM |  |
| CCOP(=O)(CC1CC(O)(CNc2cc(Cl)nc(N)n2)C1)OCC (centres undefined) | > 100 µM | > 100 µM | > 100 µM | > 100 µM | > 100 µM | > 100 µM | > 100 µM |  | > 100 µM | > 100 µM | > 100 µM | > 100 µM | > 100 µM | > 100 µM | > 100 µM | > 100 µM | > 100 µM | > 100 µM | > 100 µM |
| O=c1[nH]nc(Cc2ccccc2)n1/N=C/c1ccc([N+](=O)[O-])o1 | 27.4 µM | > 100 µM | > 100 µM | 6.13 µM | 7.29 µM | 18.9 µM | > 100 µM | 7.1 µM | 18.4 µM | > 100 µM | 3.87 µM | 24.4 µM | 26.1 µM | 21.2 µM | 7.94 µM | 36.2 µM |  | 46 µM | > 100 µM |
| Cc1ccccc1C(=O)C#Cc1cn(C2CC(O)C(CO)O2)c(=O)[nH]c1=O (centres undefined) | > 100 µM | 67.3 µM | > 100 µM | > 100 µM | > 100 µM | > 100 µM | > 100 µM | > 100 µM | > 100 µM | 92.5 µM | 28.7 µM | > 100 µM |  | > 100 µM | > 100 µM | > 100 µM | > 100 µM | > 100 µM | > 100 µM |
| CC(C)(C)OC(=O)NC1CCCC1C(O)(C1=CCCC1)C1=CCCC1 (centres undefined) | > 100 µM | > 100 µM | > 100 µM | > 100 µM | > 100 µM | > 100 µM |  | > 100 µM | > 100 µM | > 100 µM |  | > 100 µM | > 100 µM | > 100 µM | > 100 µM |  | > 100 µM | > 100 µM | > 100 µM |
| CC(C)=CCC/C(=C\CC/C(=C\CCc1ccoc1)C(=O)O)C(=O)O | > 100 µM | > 100 µM | > 100 µM | > 100 µM | > 100 µM | > 100 µM | > 100 µM | > 100 µM | > 100 µM | > 100 µM | > 100 µM | > 100 µM | > 100 µM | > 100 µM | > 100 µM | > 100 µM | > 100 µM | > 100 µM |  |
| N#CCN1CCCCCc2ccccc21 | > 100 µM | > 100 µM | > 100 µM | > 100 µM | > 100 µM | > 100 µM | > 100 µM | > 100 µM | > 100 µM | > 100 µM |  | > 100 µM | > 100 µM | > 100 µM | > 100 µM | > 100 µM | > 100 µM | > 100 µM | > 100 µM |
